Assay results as given in patent publication US20060198914A1, “Use of rutin and isoharmnetin for treating depressive states and depression and other emotion disorders” (Bioplanta Arzneimittel GmbH, priority 2003, published 2006).

System: rats
Test: forced swimming test in rats
Assay type: in vivo
Procedure: The antidepressive efficacy was examined by means of the so-called “forced swimming test” in rats. In performing this test rats are brought into an impasse situation (glass cylinder filled with water) over a specified period of 5 minutes. In this test the rats react with a rigor referred to as an immobilization period which is interpreted as a correlative to a depression. If the rats are treated with medicaments having an antidepressive efficacy before carrying out the test, the immobilization period is decreased. Since other psychotropic drugs such as anxiolytics or neuroleptics are not effective in this test, this test system is well suitable for detecting antidepressive effects (Porsolt et al. 1978; Porsolt, 1991). In this test all hitherto known antidepressives have to be administered over a period of several days in order to be effective (similar to the administration to patients). The test animals were treated either with the test substance or for control purposes with the solvent only or with the tricyclic antidepressive imipramine for a comparison of the efficacy.
The following tables exemplarily show the efficacy of rutin, isorhamnetin and plant extracts containing isorhamnetin derivatives or rutin in sufficient amounts. In each table the inhibition of the immobility is expressed in terms of % inhibition against the control group for comparison purposes.

Row | SMILES | Inhibition of immobility [% of the control] (Table 1, dose 30 mg/kg) | Inhibition of immobility [% of the control] (Table 2, dose 3 mg/kg) | Inhibition of immobility [% of the control] (Table 2, dose 10 mg/kg) | Inhibition [% of the control] (Table 3, dose 20 mg/kg) | Inhibition [% of the control] (Table 4, dose 20 mg/kg) | Inhibition [% of the control] (Table 5, dose 30 mg/kg) | Inhibition of immobility [% of the control] (Table 1, dose 3 mg/kg) | Inhibition of immobility [% of the control] (Table 1, dose 6 mg/kg) | Inhibition of immobility [% of the control] (Table 1, dose 12 mg/kg) | Inhibition of immobility [% of the control] (Table 1, dose 24 mg/kg) | Inhibition of immobility [% of the control] (Table 1, dose 48 mg/kg)
1 | CN(C)CCCN1c2ccccc2CCc2ccccc21 [Imipramine, imipramine, reference compound] | 46 % of the control | 3 % of the control | 24 % of the control | 43 % of the control | 43 % of the control | 64 % of the control |  |  |  |  | 
2 | COc1cc(-c2oc3cc(O)cc(O)c3c(=O)c2O)ccc1O [Isorhamnetin, 3,5,7-trihydroxy-2-(4-hydroxy-3-methoxyphenyl)-4H-1-benzopyran-4-one] |  | 17 % of the control | 56 % of the control |  |  |  |  |  |  |  | 
3 | C[C@@H]1O[C@@H](OC[C@H]2O[C@@H](Oc3c(-c4ccc(O)c(O)c4)oc4cc(O)cc(O)c4c3=O)[C@H](O)[C@@H](O)[C@@H]2O)[C@H](O)[C@H](O)[C@H]1O [Rutin, 3-[[6-O-(6-deoxy-α-L-mannopyranosyl)-β-D-glucopyranosyl]oxy]-2-(3,4-dihydroxyphenyl)-5,7-dihydroxy-4H-1-benzopyran-4-one] |  |  |  |  |  |  | 8 % of the control | 41 % of the control | 42 % of the control | 49 % of the control | 74 % of the control
